Measurements from ChEMBL document CHEMBL4813981, “Synthesis and in vitro antibacterial activity of new aminothiazole-oximepiperidone cephalosporins” (2021).
In brackets after ≈: the same amount, converted by molar mass.

What was measured:
Acinetobacter baumannii [1] = assay: Bactericidal activity against Carbapenem- resistant Acinetobacter baumannii 17-3 assessed as reduction in bacterial growth; type: functional
Acinetobacter baumannii [2] = assay: Bactericidal activity against Carbapenem- resistant Acinetobacter baumannii 17-11 assessed as reduction in bacterial growth; type: functional
Enterobacter cloacae [3] = assay: Bactericidal activity against Enterobacter cloacae 17-3 assessed as reduction in bacterial growth; type: functional
Klebsiella pneumoniae [4] = assay: Ratio of MBC to MIC for ESBLs negative Carbapenem-sensitive Klebsiella pneumoniae 17-17 assessed as reduction in bacterial growth in the presence of Avibactam; type: functional
Pseudomonas aeruginosa [5] = assay: Ratio of MBC to MIC for Pseudomonas aeruginosa ATCC 27853 assessed as reduction in bacterial growth; type: functional
Klebsiella pneumoniae [6] = assay: Ratio of MBC to MIC for ESBLs positive Carbapenem-sensitive Klebsiella pneumoniae 17-6 assessed as reduction in bacterial growth; type: functional
Klebsiella pneumoniae [7] = assay: Antibacterial activity against ESBLs negative Carbapenem-sensitive Klebsiella pneumoniae 17-16 assessed as reduction in bacterial growth in the presence of Avibactam; type: functional
Klebsiella pneumoniae [8] = assay: Antibacterial activity against ESBLs negative Carbapenem-sensitive Klebsiella pneumoniae 17-19 assessed as reduction in bacterial growth in the presence of Avibactam; type: functional
Pseudomonas aeruginosa [9] = assay: Ratio of MBC to MIC for carbapenem-sensitive Pseudomonas aeruginosa 17-7 assessed as reduction in bacterial growth; type: functional
Klebsiella pneumoniae [10] = assay: Ratio of MBC to MIC for ESBLs negative Carbapenem-sensitive Klebsiella pneumoniae 17-16 assessed as reduction in bacterial growth in the presence of Avibactam; type: functional
Escherichia coli [11] = assay: Antibacterial activity against ESBLs positive Carbapenem-sensitive Escherichia coli 17-12 assessed as reduction in bacterial growth in the presence of Avibactam; type: functional
Klebsiella aerogenes [12] = assay: Ratio of MBC to MIC for Enterobacter aerogenes 17-1 assessed as reduction in bacterial growth; type: functional
Enterobacter cloacae [13] = assay: Ratio of MBC to MIC for Enterobacter cloacae 17-8 assessed as reduction in bacterial growth; type: functional
Klebsiella pneumoniae [14] = assay: Antibacterial activity against ESBLs negative Carbapenem-sensitive Klebsiella pneumoniae 15-2 assessed as reduction in bacterial growth in the presence of Avibactam; type: functional
Escherichia coli [15] = assay: Antibacterial activity against ESBLs negative Carbapenem-sensitive Escherichia coli 17-16 assessed as reduction in bacterial growth in the presence of Avibactam; type: functional
Pseudomonas aeruginosa [16] = assay: Antibacterial activity against Carbapenem- sensitive Pseudomonas aeruginosa 17-30 assessed as reduction in bacterial growth in the presence of Avibactam; type: functional
Klebsiella pneumoniae [17] = assay: Antibacterial activity against ESBLs positive Carbapenem-sensitive Klebsiella pneumoniae 17-2 assessed as reduction in bacterial growth in the presence of Avibactam; type: functional
Acinetobacter baumannii [18] = assay: Antibacterial activity against Carbapenem- resistant Acinetobacter baumannii 17-3 assessed as reduction in bacterial growth
Klebsiella aerogenes [19] = assay: Bactericidal activity against Enterobacter aerogenes 17-4 assessed as reduction in bacterial growth; type: functional
Enterobacter cloacae [20] = assay: Ratio of MBC to MIC for Enterobacter cloacae 17-9 assessed as reduction in bacterial growth in the presence of Avibactam; type: functional
Escherichia coli [21] = assay: Ratio of MBC to MIC for ESBLs negative Carbapenem-sensitive Escherichia coli 17-9 assessed as reduction in bacterial growth; type: functional
Enterobacter cloacae [22] = assay: Antibacterial activity against Enterobacter cloacae 17-6 assessed as reduction in bacterial growth in the presence of Avibactam; type: functional
Pseudomonas aeruginosa [23] = assay: Ratio of MBC to MIC for carbapenem-sensitive Pseudomonas aeruginosa 17-9 assessed as reduction in bacterial growth; type: functional
Enterobacter cloacae [24] = assay: Ratio of MBC to MIC for Enterobacter cloacae 17-10 assessed as reduction in bacterial growth in the presence of Avibactam; type: functional
Escherichia coli [25] = assay: Antibacterial activity against ESBLs positive Carbapenem-sensitive Escherichia coli 17-5 assessed as reduction in bacterial growth in the presence of Avibactam; type: functional
Escherichia coli [26] = assay: Ratio of MBC to MIC for Escherichia coli NCTC 13353 assessed as reduction in bacterial growth in the presence of Avibactam; type: functional
Enterobacter cloacae [27] = assay: Antibacterial activity against Enterobacter cloacae 17-8 assessed as reduction in bacterial growth
Pseudomonas aeruginosa [28] = assay: Ratio of MBC to MIC for carbapenem-sensitive Pseudomonas aeruginosa 17-26 assessed as reduction in bacterial growth; type: functional
Pseudomonas aeruginosa [29] = assay: Ratio of MBC to MIC for carbapenem-sensitive Pseudomonas aeruginosa 17-26 assessed as reduction in bacterial growth in the presence of Avibactam; type: functional
Klebsiella pneumoniae [30] = assay: Ratio of MBC to MIC for Klebsiella pneumoniae ATCC BAA-1705 assessed as reduction in bacterial growth in the presence of Avibactam; type: functional
Pseudomonas aeruginosa [31] = assay: Ratio of MBC to MIC for carbapenem-sensitive Pseudomonas aeruginosa 17-29 assessed as reduction in bacterial growth; type: functional
Enterobacter cloacae [32] = assay: Ratio of MBC to MIC for Enterobacter cloacae 17-8 assessed as reduction in bacterial growth in the presence of Avibactam; type: functional
Escherichia coli [33] = assay: Ratio of MBC to MIC for ESBLs positive carbapenem-negative Escherichia coli 17-10 assessed as reduction in bacterial growth in the presence of Avibactam; type: functional
Pseudomonas aeruginosa [34] = assay: Ratio of MBC to MIC for carbapenem-sensitive Pseudomonas aeruginosa 17-7 assessed as reduction in bacterial growth in the presence of Avibactam; type: functional
Escherichia coli [35] = assay: Ratio of MBC to MIC for ESBLs positive carbapenem-negative Escherichia coli 17-18 assessed as reduction in bacterial growth in the presence of Avibactam; type: functional
Acinetobacter baumannii [36] = assay: Ratio of MBC to MIC for Acinetobacter baumannii NCTC 13304 assessed as reduction in bacterial growth in the presence of Avibactam; type: functional
Escherichia coli [37] = assay: Ratio of MBC to MIC for ESBLs positive Carbapenem-sensitive Escherichia coli 17-18 assessed as reduction in bacterial growth; type: functional
Escherichia coli [38] = assay: Antibacterial activity against ESBLs positive Carbapenem-sensitive Escherichia coli 17-8 assessed as reduction in bacterial growth in the presence of Avibactam; type: functional
Acinetobacter baumannii [39] = assay: Antibacterial activity against Carbapenem- resistant Acinetobacter baumannii 17-11 assessed as reduction in bacterial growth
Klebsiella pneumoniae [40] = assay: Ratio of MBC to MIC for ESBLs positive Carbapenem-sensitive Klebsiella pneumoniae 17-2 assessed as reduction in bacterial growth; type: functional
Klebsiella aerogenes [41] = assay: Antibacterial activity against Enterobacter aerogenes 17-3 assessed as reduction in bacterial growth in the presence of Avibactam; type: functional
Klebsiella pneumoniae [42] = assay: Antibacterial activity against ESBLs positive Carbapenem-sensitive Klebsiella pneumoniae 17-5 assessed as reduction in bacterial growth in the presence of Avibactam; type: functional

CC(C)(O/N=C(\C(=O)N[C@@H]1C(=O)N2C(C(=O)[O-])=C(C[n+]3ccccc3)CS[C@H]12)c1csc(N)n1)C(=O)O [CEFTAZIDIME]
MBC (Acinetobacter baumannii [1]): 64 µg/mL (≈ 117 µM)
MBC (Acinetobacter baumannii [2]): > 64 µg/mL
MBC (Enterobacter cloacae [3]): > 16 µg/mL

Nc1nc(/C(=N/OCc2cc(=O)c(O)cn2O)C(=O)N[C@@H]2C(=O)N3C(C(=O)O)=CCS[C@H]23)cs1
Ratio (Klebsiella pneumoniae [4]): 8
Ratio (Pseudomonas aeruginosa [5]): 16
Ratio (Klebsiella pneumoniae [6]): 2
MIC (Klebsiella pneumoniae [7]): 0.06 µg/mL
MIC (Klebsiella pneumoniae [8]): ≤ 0.03 µg/mL
Ratio (Pseudomonas aeruginosa [9]): 4
Ratio (Klebsiella pneumoniae [10]): 1
MIC (Escherichia coli [11]): 0.25 µg/mL
Ratio (Klebsiella aerogenes [12]): 2
Ratio (Enterobacter cloacae [13]): 1
MIC (Klebsiella pneumoniae [14]): ≤ 0.03 µg/mL
MIC (Escherichia coli [15]): 0.5 µg/mL
MIC (Pseudomonas aeruginosa [16]): 0.25 µg/mL
MIC (Klebsiella pneumoniae [17]): 0.125 µg/mL
MIC (Acinetobacter baumannii [18]): > 64 µg/mL
MBC (Klebsiella aerogenes [19]): 16 µg/mL (≈ 31.5 µM)
Ratio (Enterobacter cloacae [20]): 1
Ratio (Escherichia coli [21]): 4
MIC (Enterobacter cloacae [22]): 1 µg/mL
Ratio (Pseudomonas aeruginosa [23]): 4
Ratio (Enterobacter cloacae [24]): 2
MIC (Escherichia coli [25]): 1 µg/mL
Ratio (Escherichia coli [26]): 1
MIC (Enterobacter cloacae [27]): 16 µg/mL (≈ 31.5 µM)
Ratio (Pseudomonas aeruginosa [28]): >8
Ratio (Pseudomonas aeruginosa [29]): 4
Ratio (Klebsiella pneumoniae [30]): 1
Ratio (Pseudomonas aeruginosa [31]): 4
Ratio (Enterobacter cloacae [32]): 1
Ratio (Escherichia coli [33]): 8
Ratio (Pseudomonas aeruginosa [34]): 1
Ratio (Escherichia coli [35]): 2
Ratio (Acinetobacter baumannii [36]): 1
Ratio (Escherichia coli [37]): 4
MIC (Escherichia coli [38]): 0.5 µg/mL
MIC (Acinetobacter baumannii [39]): > 64 µg/mL
Ratio (Klebsiella pneumoniae [40]): 1
MIC (Klebsiella aerogenes [41]): 0.5 µg/mL
MIC (Klebsiella pneumoniae [42]): 1 µg/mL
